Assay results: the NIST ThermoML archive (doi:10.1016/j.jct.2019.05.002)
Numbers after ± are expanded uncertainties.

Legend:
[1] = 100 kPa, Liquid; for speed of sound: Frequency=3 MHz, Single path-length method; for mass density: Vibrating tube method
[2] = xn = mol fraction of the nth substance listed; conditions: 100 kPa, Liquid, x1 = 1; for speed of sound: Frequency=3 MHz, Single path-length method; for mass density: Vibrating tube method

SMILES	speed of sound ([1]; 298.15 K) [m/s]	mass density ([1]; 298.15 K) [kg/m3]	speed of sound ([1]; 303.15 K) [m/s]	mass density ([1]; 303.15 K) [kg/m3]	speed of sound ([1]; 308.15 K) [m/s]	mass density ([1]; 308.15 K) [kg/m3]	speed of sound ([1]; 313.15 K) [m/s]	mass density ([1]; 313.15 K) [kg/m3]	speed of sound ([1]; 318.15 K) [m/s]	mass density ([1]; 318.15 K) [kg/m3]	speed of sound ([1]; 323.15 K) [m/s]	mass density ([1]; 323.15 K) [kg/m3]	speed of sound ([2]; 298.15 K) [m/s]	mass density ([2]; 298.15 K) [kg/m3]	speed of sound ([2]; 303.15 K) [m/s]	mass density ([2]; 303.15 K) [kg/m3]	speed of sound ([2]; 308.15 K) [m/s]	mass density ([2]; 308.15 K) [kg/m3]	speed of sound ([2]; 313.15 K) [m/s]	mass density ([2]; 313.15 K) [kg/m3]	further results
CCC(O)CO (centres undefined) [1,2-butanediol]	1452.5 ± 1.4	998.56 ± 2	1437.9 ± 1.4	994.75 ± 2	1423.3 ± 1.4	990.92 ± 2	1408.7 ± 1.4	987.11 ± 2	1394.1 ± 1.4	983.28 ± 2	1379.5 ± 1.4	979.46 ± 2									
CC(O)CCO (centres undefined) [1,3-butanediol]	1527.9 ± 1.4	1001.87 ± 2	1514 ± 1.4	998.41 ± 2	1500.1 ± 1.4	994.94 ± 2	1486.2 ± 1.4	991.49 ± 2	1472.3 ± 1.4	988.02 ± 2	1458.4 ± 1.4	984.56 ± 2									
OCCCCO [1,4-butanediol]	1601.9 ± 1.1	1012.8 ± 2	1590.3 ± 1.1	1009.77 ± 2	1578.6 ± 1.1	1006.74 ± 2	1567 ± 1.1	1003.7 ± 2	1555.3 ± 1.1	1000.67 ± 2	1543.7 ± 1.1	997.63 ± 2									
CCCC(=O)OCC [ethyl butanoate]	1171.8 ± 1	874.31 ± 2	1151.1 ± 1	868.85 ± 2	1130.2 ± 1	863.4 ± 2	1109 ± 1	857.94 ± 2	1088 ± 1	852.49 ± 2	1067.1 ± 1	847.03 ± 2									
CCCC(=O)OCC [ethyl butanoate] + CC(O)CCO													1171.8 ± 1	874.31 ± 2	1151.1 ± 1	868.85 ± 2	1130.2 ± 1	863.4 ± 2	1109 ± 1	857.94 ± 2	speed of sound ([2]; 318.15 K): 1088 ± 1 m/s; mass density ([2]; 318.15 K): 852.49 ± 2 kg/m3; speed of sound ([2]; 323.15 K): 1067.1 ± 1 m/s; mass density ([2]; 323.15 K): 847.03 ± 2 kg/m3
CCCC(=O)OCC [ethyl butanoate] + CCC(O)CO													1171.8 ± 1	874.31 ± 2	1151.1 ± 1	868.85 ± 2	1130.2 ± 1	863.4 ± 2	1109 ± 1	857.94 ± 2	speed of sound ([2]; 318.15 K): 1088 ± 1 m/s; mass density ([2]; 318.15 K): 852.49 ± 2 kg/m3; speed of sound ([2]; 323.15 K): 1067.1 ± 1 m/s; mass density ([2]; 323.15 K): 847.03 ± 2 kg/m3
CCCC(=O)OCC [ethyl butanoate] + OCCCCO													1171.8 ± 1	874.31 ± 2	1151.1 ± 1	868.85 ± 2	1130.2 ± 1	863.4 ± 2	1109 ± 1	857.94 ± 2	speed of sound ([2]; 318.15 K): 1088 ± 1 m/s; mass density ([2]; 318.15 K): 852.49 ± 2 kg/m3; speed of sound ([2]; 323.15 K): 1067.1 ± 1 m/s; mass density ([2]; 323.15 K): 847.03 ± 2 kg/m3
